Data published in ChEMBL document CHEMBL1151757, “Synthesis, radiosynthesis, and biological evaluation of fluorine-18-labeled 2beta-carbo(fluoroalkoxy)-3beta-(3'-((Z)-2-haloethenyl)phenyl)nortropanes: candidate radioligands for in vivo imaging of the serotonin transporter with positron emission tomography” (J Med Chem, 2008).

What was measured:
[1] = Ratio of drug uptake in pons to cerebellum in anesthetized cynomolgus monkey after 105 mins postinjection; format: ADME, organism-based, Macaca fascicularis; settings: in vivo, 1.75 h
[2] = Ratio of drug uptake in pons to cerebellum in anesthetized cynomolgus monkey after 175 mins postinjection; format: ADME, organism-based, Macaca fascicularis; settings: in vivo
[3] = Ratio of drug uptake in medulla to cerebellum in anesthetized cynomolgus monkey after 1.5 mins postinjection; format: ADME, organism-based, Macaca fascicularis; settings: in vivo, 0.025 h
[4] = Ratio of drug uptake in medulla to cerebellum in anesthetized cynomolgus monkey after 35 mins postinjection; format: ADME, organism-based, Macaca fascicularis; settings: in vivo
[5] = Ratio of drug uptake in medulla to cerebellum in anesthetized cynomolgus monkey after 85 mins postinjection; format: ADME, organism-based, Macaca fascicularis; settings: in vivo
[6] = Ratio of drug uptake in medulla to cerebellum in anesthetized cynomolgus monkey after 195 mins postinjection; format: ADME, organism-based, Macaca fascicularis; settings: in vivo, 3.25 h
[7] = Drug uptake in anesthetized cynomolgus monkey brain occipital lobe after 4.5 mins postinjection; format: ADME, organism-based, Macaca fascicularis; settings: in vivo, 0.075 h
[8] = Drug uptake in anesthetized cynomolgus monkey brain occipital lobe after 55 mins postinjection; format: ADME, organism-based, Macaca fascicularis; settings: in vivo
[9] = Drug uptake in anesthetized cynomolgus monkey brain occipital lobe after 75 mins postinjection; format: ADME, organism-based, Macaca fascicularis; settings: in vivo, 1.25 h
[10] = Drug uptake in anesthetized cynomolgus monkey brain occipital lobe after 135 mins postinjection; format: ADME, organism-based, Macaca fascicularis; settings: in vivo, 2.25 h
[11] = Drug uptake in anesthetized cynomolgus monkey brain occipital lobe after 155 mins postinjection; format: ADME, organism-based, Macaca fascicularis; settings: in vivo
[12] = Drug uptake in anesthetized cynomolgus monkey brain occipital lobe after 165 mins postinjection; format: ADME, organism-based, Macaca fascicularis; settings: in vivo, 2.75 h
[13] = Drug uptake in anesthetized cynomolgus monkey brain frontal lobe after 15.5 mins postinjection; format: ADME, organism-based, Macaca fascicularis; settings: in vivo
[14] = Drug uptake in anesthetized cynomolgus monkey brain frontal lobe after 155 mins postinjection; format: ADME, organism-based, Macaca fascicularis; settings: in vivo
[15] = Ratio of drug uptake in midbrain to cerebellum in anesthetized cynomolgus monkey after 235 mins postinjection; format: ADME, organism-based, Macaca fascicularis; settings: in vivo
[16] = Ratio of drug uptake in occipital lobe to cerebellum in anesthetized cynomolgus monkey after 175 mins postinjection; format: ADME, organism-based, Macaca fascicularis; settings: in vivo
Putamen [17] = assay: Drug uptake in anesthetized cynomolgus monkey brain putamen after 135 mins postinjection; format: ADME, organism-based, Macaca fascicularis; settings: in vivo, 2.25 h
[18] = Ratio of drug uptake in frontal lobe to cerebellum in anesthetized cynomolgus monkey after 75 mins postinjection; format: ADME, organism-based, Macaca fascicularis; settings: in vivo, 1.25 h
Midbrain [19] = assay: Drug uptake in anesthetized cynomolgus monkey brain midbrain after 135 mins postinjection; format: ADME, organism-based, Macaca fascicularis; settings: in vivo, 2.25 h
Midbrain [20] = assay: Drug uptake in anesthetized cynomolgus monkey brain midbrain after 225 mins postinjection; format: ADME, organism-based, Macaca fascicularis; settings: in vivo, 3.75 h
Pons [21] = assay: Drug uptake in anesthetized cynomolgus monkey brain pons after 2.5 mins postinjection; format: ADME, organism-based, Macaca fascicularis; settings: in vivo
Pons [22] = assay: Drug uptake in anesthetized cynomolgus monkey brain pons after 12.5 mins postinjection; format: ADME, organism-based, Macaca fascicularis; settings: in vivo
Pons [23] = assay: Drug uptake in anesthetized cynomolgus monkey brain pons after 65 mins postinjection; format: ADME, organism-based, Macaca fascicularis; settings: in vivo
Pons [24] = assay: Drug uptake in anesthetized cynomolgus monkey brain pons after 75 mins postinjection; format: ADME, organism-based, Macaca fascicularis; settings: in vivo, 1.25 h
Pons [25] = assay: Drug uptake in anesthetized cynomolgus monkey brain pons after 105 mins postinjection; format: ADME, organism-based, Macaca fascicularis; settings: in vivo, 1.75 h
Thalamus [26] = assay: Drug uptake in anesthetized cynomolgus monkey brain thalamus after 205 mins postinjection; format: ADME, organism-based, Macaca fascicularis; settings: in vivo
Midbrain [27] = assay: Drug uptake in anesthetized cynomolgus monkey brain midbrain after 185 mins postinjection; format: ADME, organism-based, Macaca fascicularis; settings: in vivo
[28] = Drug uptake in anesthetized cynomolgus monkey brain cerebellum after 195 mins postinjection; format: ADME, organism-based, Macaca fascicularis; settings: in vivo, 3.25 h
[29] = Ratio of drug uptake in caudate to cerebellum in anesthetized cynomolgus monkey after 0.5 mins postinjection; format: ADME, organism-based, Macaca fascicularis; settings: in vivo
Caudate [30] = assay: Drug uptake in anesthetized cynomolgus monkey brain caudate after 205 mins postinjection; format: ADME, organism-based, Macaca fascicularis, Caudate nucleus; settings: in vivo
[31] = Ratio of drug uptake in caudate to cerebellum in anesthetized cynomolgus monkey after 9.5 mins postinjection; format: ADME, organism-based, Macaca fascicularis; settings: in vivo
[32] = Ratio of drug uptake in caudate to cerebellum in anesthetized cynomolgus monkey after 18.5 mins postinjection; format: ADME, organism-based, Macaca fascicularis; settings: in vivo
[33] = Ratio of drug uptake in caudate to cerebellum in anesthetized cynomolgus monkey after 135 mins postinjection; format: ADME, organism-based, Macaca fascicularis; settings: in vivo, 2.25 h
Pons [34] = assay: Drug uptake in anesthetized cynomolgus monkey brain pons after 175 mins postinjection; format: ADME, organism-based, Macaca fascicularis; settings: in vivo
[35] = Ratio of drug uptake in putamen to cerebellum in anesthetized cynomolgus monkey after 9.5 mins postinjection; format: ADME, organism-based, Macaca fascicularis; settings: in vivo
Medulla [36] = assay: Drug uptake in anesthetized cynomolgus monkey brain medulla after 145 mins postinjection; format: ADME, organism-based, Macaca fascicularis; settings: in vivo
[37] = Drug uptake in anesthetized cynomolgus monkey brain cerebellum after 1.5 mins postinjection; format: ADME, organism-based, Macaca fascicularis; settings: in vivo, 0.025 h
[38] = Drug uptake in anesthetized cynomolgus monkey brain cerebellum after 22.5 mins postinjection; format: ADME, organism-based, Macaca fascicularis; settings: in vivo, 0.375 h
[39] = Drug uptake in anesthetized cynomolgus monkey brain cerebellum after 75 mins postinjection; format: ADME, organism-based, Macaca fascicularis; settings: in vivo, 1.25 h
[40] = Drug uptake in anesthetized cynomolgus monkey brain cerebellum after 95 mins postinjection; format: ADME, organism-based, Macaca fascicularis; settings: in vivo
Medulla [41] = assay: Drug uptake in anesthetized cynomolgus monkey brain medulla after 115 mins postinjection; format: ADME, organism-based, Macaca fascicularis; settings: in vivo
[42] = Drug uptake in anesthetized cynomolgus monkey brain cerebellum after 175 mins postinjection; format: ADME, organism-based, Macaca fascicularis; settings: in vivo
[43] = Drug uptake in anesthetized cynomolgus monkey brain cerebellum after 215 mins postinjection; format: ADME, organism-based, Macaca fascicularis; settings: in vivo
[44] = Drug uptake in anesthetized cynomolgus monkey brain cerebellum after 225 mins postinjection; format: ADME, organism-based, Macaca fascicularis; settings: in vivo, 3.75 h
Caudate [45] = assay: Drug uptake in anesthetized cynomolgus monkey brain caudate after 1.5 mins postinjection; format: ADME, organism-based, Macaca fascicularis, Caudate nucleus; settings: in vivo, 0.025 h
Caudate [46] = assay: Drug uptake in anesthetized cynomolgus monkey brain caudate after 12.5 mins postinjection; format: ADME, organism-based, Macaca fascicularis, Caudate nucleus; settings: in vivo
Caudate [47] = assay: Drug uptake in anesthetized cynomolgus monkey brain caudate after 18.5 mins postinjection; format: ADME, organism-based, Macaca fascicularis, Caudate nucleus; settings: in vivo
Caudate [48] = assay: Drug uptake in anesthetized cynomolgus monkey brain caudate after 35 mins postinjection; format: ADME, organism-based, Macaca fascicularis, Caudate nucleus; settings: in vivo
Caudate [49] = assay: Drug uptake in anesthetized cynomolgus monkey brain caudate after 55 mins postinjection; format: ADME, organism-based, Macaca fascicularis, Caudate nucleus; settings: in vivo
Caudate [50] = assay: Drug uptake in anesthetized cynomolgus monkey brain caudate after 85 mins postinjection; format: ADME, organism-based, Macaca fascicularis, Caudate nucleus; settings: in vivo
Caudate [51] = assay: Drug uptake in anesthetized cynomolgus monkey brain caudate after 135 mins postinjection; format: ADME, organism-based, Macaca fascicularis, Caudate nucleus; settings: in vivo, 2.25 h
Caudate [52] = assay: Drug uptake in anesthetized cynomolgus monkey brain caudate after 145 mins postinjection; format: ADME, organism-based, Macaca fascicularis, Caudate nucleus; settings: in vivo
Putamen [53] = assay: Drug uptake in anesthetized cynomolgus monkey brain putamen after 2.5 mins postinjection; format: ADME, organism-based, Macaca fascicularis; settings: in vivo
[54] = Ratio of drug uptake in occipital lobe to cerebellum in anesthetized cynomolgus monkey after 18.5 mins postinjection; format: ADME, organism-based, Macaca fascicularis; settings: in vivo
Thalamus [55] = assay: Drug uptake in anesthetized cynomolgus monkey brain thalamus after 27.5 mins postinjection; format: ADME, organism-based, Macaca fascicularis; design: unit not given here; settings: in vivo
Putamen [56] = assay: Drug uptake in anesthetized cynomolgus monkey brain putamen after 15.5 mins postinjection; format: ADME, organism-based, Macaca fascicularis; design: unit not given here; settings: in vivo
Putamen [57] = assay: Drug uptake in anesthetized cynomolgus monkey brain putamen after 22.5 mins postinjection; format: ADME, organism-based, Macaca fascicularis; design: unit not given here; settings: in vivo, 0.375 h
Putamen [58] = assay: Drug uptake in anesthetized cynomolgus monkey brain putamen after 45 mins postinjection; format: ADME, organism-based, Macaca fascicularis; design: unit not given here; settings: in vivo, 0.75 h
Putamen [59] = assay: Drug uptake in anesthetized cynomolgus monkey brain putamen after 65 mins postinjection; format: ADME, organism-based, Macaca fascicularis; design: unit not given here; settings: in vivo
Putamen [60] = assay: Drug uptake in anesthetized cynomolgus monkey brain putamen after 85 mins postinjection; format: ADME, organism-based, Macaca fascicularis; design: unit not given here; settings: in vivo
Thalamus [61] = assay: Drug uptake in anesthetized cynomolgus monkey brain thalamus after 95 mins postinjection; format: ADME, organism-based, Macaca fascicularis; design: unit not given here; settings: in vivo
Thalamus [62] = assay: Drug uptake in anesthetized cynomolgus monkey brain thalamus after 135 mins postinjection; format: ADME, organism-based, Macaca fascicularis; design: unit not given here; settings: in vivo, 2.25 h
Thalamus [63] = assay: Drug uptake in anesthetized cynomolgus monkey brain thalamus after 215 mins postinjection; format: ADME, organism-based, Macaca fascicularis; design: unit not given here; settings: in vivo
Midbrain [64] = assay: Drug uptake in anesthetized cynomolgus monkey brain midbrain after 15.5 mins postinjection; format: ADME, organism-based, Macaca fascicularis; design: unit not given here; settings: in vivo
Midbrain [65] = assay: Drug uptake in anesthetized cynomolgus monkey brain midbrain after 45 mins postinjection; format: ADME, organism-based, Macaca fascicularis; design: unit not given here; settings: in vivo, 0.75 h
[66] = Ratio of drug uptake in midbrain to cerebellum in anesthetized cynomolgus monkey after 22.5 mins postinjection; format: ADME, organism-based, Macaca fascicularis; settings: in vivo, 0.375 h
[67] = Ratio of drug uptake in midbrain to cerebellum in anesthetized cynomolgus monkey after 125 mins postinjection; format: ADME, organism-based, Macaca fascicularis; settings: in vivo

For O=C(OCC[18F])C1C2CCC(CC1c1cccc(/C=C\Br)c1)N2 (configuration not stated), the Ratio [1] was 1.5, the Ratio [2] was 1.8 and the Ratio [3] was 1.3. It also gave a Ratio [4] of 1.3, a Ratio [5] of 1.5 and a Ratio [6] of 1.9. The Drug uptake [7] was 1.32, the Drug uptake [8] was 3.49 and the Drug uptake [9] was 3.49. The Drug uptake [10] was 2.78, the Drug uptake [11] was 2.67 and the Drug uptake [12] was 2.5. It also gave a Drug uptake [13] of 2.38, a Drug uptake [14] of 2.46 and a Ratio [15] of 2.3. The Ratio [16] was 1.2, the Drug uptake (Putamen [17]) was 4.4 and the Ratio [18] was 0.9. It also gave a Drug uptake (Midbrain [19]) of 4.67, a Drug uptake (Midbrain [20]) of 3.74 and a Drug uptake (Pons [21]) of 0.42. It also gave a Drug uptake (Pons [22]) of 3.52, a Drug uptake (Pons [23]) of 4.56 and a Drug uptake (Pons [24]) of 4.51. For the same compound, the Drug uptake (Pons [25]) was 4.34, the Drug uptake (Thalamus [26]) was 3.3 and the Drug uptake (Midbrain [27]) was 4.14. For the same compound, the Drug uptake [28] was 1.79, the Ratio [29] was 0.9 and the Drug uptake (Caudate [30]) was 2.92. It also gave a Ratio [31] of 0.7, a Ratio [32] of 0.8 and a Ratio [33] of 1.5. It also gave a Drug uptake (Pons [34]) of 3.72, a Ratio [35] of 1.1 and a Drug uptake (Medulla [36]) of 3.92. The Drug uptake [37] was 0.06, the Drug uptake [38] was 3.81 and the Drug uptake [39] was 3.3. For the same compound, the Drug uptake [40] was 3.05, the Drug uptake (Medulla [41]) was 4.28 and the Drug uptake [42] was 2.03. It also gave a Drug uptake [43] of 1.78, a Drug uptake [44] of 1.64 and a Drug uptake (Caudate [45]) of 0.04. It also gave a Drug uptake (Caudate [46]) of 2.61, a Drug uptake (Caudate [47]) of 2.8 and a Drug uptake (Caudate [48]) of 3.56. The Drug uptake (Caudate [49]) was 4.1, the Drug uptake (Caudate [50]) was 4.06 and the Drug uptake (Caudate [51]) was 3.74. It also gave a Drug uptake (Caudate [52]) of 3.52, a Drug uptake (Putamen [53]) of 0.4 and a Ratio [54] of 0.8. It also gave a Drug uptake (Thalamus [55]) of 3.94, a Drug uptake (Putamen [56]) of 4.05 and a Drug uptake (Putamen [57]) of 4.33. It also gave a Drug uptake (Putamen [58]) of 4.94, a Drug uptake (Putamen [59]) of 5.1 and a Drug uptake (Putamen [60]) of 4.94. The Drug uptake (Thalamus [61]) was 4.31, the Drug uptake (Thalamus [62]) was 4.03 and the Drug uptake (Thalamus [63]) was 2.92. The Drug uptake (Midbrain [64]) was 4.06, the Drug uptake (Midbrain [65]) was 4.82 and the Ratio [66] was 1.1. It also gave a Ratio [67] of 1.8.
